Source: ChEMBL document CHEMBL1201862, “PubChem BioAssay data set” (2004)
The source made the active and inactive calls. No stated cut-off is given here; in the data, actives have a measured IC50 and inactives only a lower limit.

Legend:
Type in all cases: functional
[1] = target: Prothrombin (Bos taurus, UniProt P00735); test: thrombin protease inhibitors – biochemical, fluorescence polarization, uHTS hits, dose response (AID 602369)
[2] = target: T1, Sentrin-specific protease 7 (Homo sapiens, UniProt Q9BQF6);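 further: Luminescence-based dose-response confirmation of ultra-high-throughput screening hits, measuring inhibition of SENP7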
T1 sequence (Q9BQF6 whole entry): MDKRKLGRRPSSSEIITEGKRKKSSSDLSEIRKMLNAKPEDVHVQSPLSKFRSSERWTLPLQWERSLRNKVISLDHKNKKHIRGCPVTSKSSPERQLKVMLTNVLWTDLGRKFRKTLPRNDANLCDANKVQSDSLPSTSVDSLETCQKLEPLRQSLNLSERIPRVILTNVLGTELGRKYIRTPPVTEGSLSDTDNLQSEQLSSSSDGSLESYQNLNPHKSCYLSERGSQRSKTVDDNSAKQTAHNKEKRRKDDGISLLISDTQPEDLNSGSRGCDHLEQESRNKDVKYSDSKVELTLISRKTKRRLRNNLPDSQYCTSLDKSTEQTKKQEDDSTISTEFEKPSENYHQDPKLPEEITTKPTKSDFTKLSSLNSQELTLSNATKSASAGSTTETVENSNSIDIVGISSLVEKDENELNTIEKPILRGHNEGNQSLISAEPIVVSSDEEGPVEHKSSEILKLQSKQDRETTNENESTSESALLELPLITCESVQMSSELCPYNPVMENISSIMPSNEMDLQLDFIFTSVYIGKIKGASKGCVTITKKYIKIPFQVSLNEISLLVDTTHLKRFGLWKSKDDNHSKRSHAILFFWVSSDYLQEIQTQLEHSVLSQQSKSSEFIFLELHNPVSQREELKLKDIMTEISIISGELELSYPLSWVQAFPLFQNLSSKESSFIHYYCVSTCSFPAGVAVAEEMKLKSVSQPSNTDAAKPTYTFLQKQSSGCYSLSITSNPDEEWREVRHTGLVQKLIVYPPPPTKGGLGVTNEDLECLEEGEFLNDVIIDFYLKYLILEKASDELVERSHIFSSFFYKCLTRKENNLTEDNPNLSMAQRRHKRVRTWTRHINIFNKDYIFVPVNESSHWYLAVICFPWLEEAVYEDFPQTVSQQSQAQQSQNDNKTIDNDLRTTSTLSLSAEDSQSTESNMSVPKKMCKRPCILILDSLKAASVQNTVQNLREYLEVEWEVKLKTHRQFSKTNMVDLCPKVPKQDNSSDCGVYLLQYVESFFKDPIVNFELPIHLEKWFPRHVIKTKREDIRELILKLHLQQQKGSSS

[3] = target: T2, Sentrin-specific protease 6 (Homo sapiens, UniProt Q9GZR1);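 further: Luminescence-based dose-response confirmatory assay of SENP6 inhibition, following up an ultra-high-throughput screen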
T2 sequence (Q9GZR1 whole entry): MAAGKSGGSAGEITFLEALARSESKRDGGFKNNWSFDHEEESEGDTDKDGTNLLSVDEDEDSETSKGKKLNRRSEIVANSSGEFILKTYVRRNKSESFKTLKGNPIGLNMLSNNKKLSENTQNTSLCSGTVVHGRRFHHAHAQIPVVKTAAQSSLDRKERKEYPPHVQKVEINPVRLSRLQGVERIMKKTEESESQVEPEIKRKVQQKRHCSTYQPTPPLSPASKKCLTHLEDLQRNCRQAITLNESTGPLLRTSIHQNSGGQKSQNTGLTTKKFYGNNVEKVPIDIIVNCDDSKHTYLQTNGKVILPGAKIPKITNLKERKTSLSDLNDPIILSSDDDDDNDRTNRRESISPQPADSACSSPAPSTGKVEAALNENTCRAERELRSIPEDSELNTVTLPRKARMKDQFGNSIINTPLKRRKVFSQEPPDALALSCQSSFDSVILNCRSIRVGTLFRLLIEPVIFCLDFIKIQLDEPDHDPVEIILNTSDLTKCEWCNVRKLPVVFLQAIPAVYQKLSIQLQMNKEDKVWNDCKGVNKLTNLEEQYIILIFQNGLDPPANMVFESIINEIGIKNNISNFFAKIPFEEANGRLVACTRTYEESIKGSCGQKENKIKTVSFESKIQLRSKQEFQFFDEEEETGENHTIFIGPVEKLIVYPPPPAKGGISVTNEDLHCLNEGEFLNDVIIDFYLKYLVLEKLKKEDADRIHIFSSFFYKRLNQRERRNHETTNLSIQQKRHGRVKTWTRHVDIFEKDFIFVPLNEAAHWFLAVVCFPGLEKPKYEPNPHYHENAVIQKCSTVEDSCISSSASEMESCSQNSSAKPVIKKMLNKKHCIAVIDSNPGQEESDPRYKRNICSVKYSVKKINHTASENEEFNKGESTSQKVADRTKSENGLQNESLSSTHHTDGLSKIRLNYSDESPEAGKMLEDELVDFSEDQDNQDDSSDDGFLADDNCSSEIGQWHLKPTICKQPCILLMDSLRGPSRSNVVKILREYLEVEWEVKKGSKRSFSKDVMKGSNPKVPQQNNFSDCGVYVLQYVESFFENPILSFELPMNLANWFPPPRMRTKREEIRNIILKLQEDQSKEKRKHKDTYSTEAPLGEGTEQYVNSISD

[4] = target: T3, Sentrin-specific protease 8 (Homo sapiens, UniProt Q96LD8);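 further: luminescence read-out of SENP8 inhibition, dose-response confirmation following an ultra-high-throughput screen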
T3 sequence (Q96LD8 whole entry): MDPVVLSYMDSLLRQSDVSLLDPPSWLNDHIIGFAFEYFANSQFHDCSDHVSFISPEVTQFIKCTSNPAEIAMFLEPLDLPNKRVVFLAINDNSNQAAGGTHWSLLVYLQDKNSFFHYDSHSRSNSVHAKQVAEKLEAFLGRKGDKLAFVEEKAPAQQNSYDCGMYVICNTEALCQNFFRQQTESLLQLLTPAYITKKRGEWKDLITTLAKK

SMILES | IC50 [1] | IC50 [2] | IC50 [3] | IC50 [4]
O=[N+]([O-])c1ccc(N/N=C/c2ccc[nH]2)cc1 | 9.84 µM (active) | – | – | –
CC(=O)N(/N=C1\Sc2ccccc2C1=O)c1cccc(C)c1 | – | 13.8 µM (active) | 6.06 µM (active) | 11.7 µM (active)
